According to patent US6410751B1, “Water soluble tri-substituted 1, 2-dioxetane compounds having increased storage stability, synthetic processes and intermediates” (Lumigen, Inc., priority 1995, dated 2002):
Like-named read-outs stand apart in the source and are kept apart here. Each block holds one compound with its values, some of them ahead of it.

Legend:
[1] = Storage stability of dioxetane formulations measured by chemiluminescent enzyme assay; type: physicochemical; details: for % of Dioxetane Remaining: 0.5 mM dioxetane formulation pH 10, temperature not given (FIG. 5: 25° C.)
Description: Storage stability is related to the rate of decomposition of the dioxetane due to spontaneous reaction and is an intrinsic property. Decomposition of triggerable dioxetanes can also be induced by the presence of trace quantities of agents which catalyze the removal of a protecting group and thus initiate the decomposition. Storage stability of a dioxetane can be assessed by measuring the quantity of dioxetane present in a known sample at periodic intervals. The measurement can take any form known which measures a property relatable to the quantity of dioxetane. Techniques such as spectrophotometry, NMR spectrometry and the like are exemplary. A convenient means is to measure the amount of light produced by reacting a known quantity of dioxetane with a triggering agent under a standard set of conditions. A decrease in the amount or intensity of light emitted signals a loss of dioxetane compound.
A fluoro-substituted analog of dioxetane 1, identified as 3, a chloro-substituted analog 4 and a methyl-substituted analog 5 have been prepared and their storage stability evaluated over several weeks. Storage stability of a solution of 1 was measured for comparison. All solutions were prepared with the same composition, differing only in the identity of the dioxetane. Stability was evaluated by chemiluminescent enzyme assay with a fixed volume of test solution and fixed limiting amount of alkaline phosphatase and measuring the plateau light intensity at 25° C.
Formulations comprising 0.1 mg/mL Enhancer A, 0.88 mM Mg^+2 , 0.2 M 2-amino-2-methyl-1-propanol, pH 10, 0.1% Triton X-100 and 0.5 mM dioxetane 1, 3, 4 and 5, respectively, were prepared and stored in opaque polyethylene bottles at 4° C., 25° C. and 40° C. Twenty four 100 μL aliquots from each bottle were pipetted into the wells of a 96 well plate and the solutions incubated at 37° C. Into each well 10 μL solutions containing 8×10^−17 moles of AP were injected and light intensity integrated over five hours. Data are the average of all 24 wells. The experiment was repeated at the indicated time intervals for each dioxetane. The results in FIG. 5 show the comparative stability of the three formulations at 25° C.

[2] = Enhancement of luminescent signal of a reagent based on dioxetane 1 by enhancers and fluorescers; details: for Factor of increase of luminescent signal: reagent based on dioxetane 1; for Enhancement Factor: 1 mg/mL Enhancer A
Description: As part of the optimization of a reagent based on dioxetane 1, a number of enhancer materials was examined. At pH 9.6, Enhancer A (1-trioctylphosphoniummethyl-4-tributylphosphoniummethylbenzene dichloride) increased the luminescent signal by a factor of 6.2, and Enhancer B (poly(vinylbenzyltributylphosphonium chloride)) increased the signal by a factor of 19.7. At pH 10.0, Enhancer A increased the signal by a factor of 4.8, and Enhancer B increased the signal by a factor of 18.9.
Tables 2 and 3 show the extent of enhancement by pyranine and fluorescein, respectively, in the presence of 1 mg/mL of Enhancer A.

alkaline phosphatase = assay: Performance of detection reagent in assays for AP in the capsule chemistry test system; type: biochemical; details: fluorescein-labeled alkaline phosphatase conjugate captured onto magnetic particles
Description: (§1) The experiments described below were performed on a prototype capsule chemistry analysis system essentially as described by Kumar et al in U.S. Pat. No. 5,399,497, with the detection system configured to measure light emission (luminescence). The method and apparatus comprises feeding a stream of fluid segments through a Teflon tube, where the tube has an isolating layer of fluorocarbon oil on the inner surface. Sample and reagents are aspirated into this tube, and the resulting liquid segments are moved through the tube. Separation steps and washing steps which are required by heterogeneous immunoassay methods were facilitated by means of magnets, which transferred magnetic particles from one aqueous segment to another. The detection system was comprised of a photon counter and a fiber optic read head, in which the fibers were radially arranged around the Teflon tube to maximize the efficiency of light collection.
A detection reagent incorporating dioxetane 3 was evaluated in a test system as described in Example 7. The test material was a fluorescein-labeled alkaline phosphatase conjugate which was captured onto the magnetic particles.

[3] = Reagent carryover in capsule chemistry analysis system (TECHNICON IMMUNO 1 TSH method, luminescence detection); details: R3 reagent with 0.2 mM CSPD; 3 mM pyranine omitted from test N only
Description: as §1, with “Separation steps and washing steps which are required by heterogeneous immunoassay methods were facilitated by means of magnets, which transferred magnetic particles from one aqueous segment to another.” left out
The TECHNICON IMMUNO 1® TSH method (Bayer Corporation, Tarrytown, N.Y., USA) was used as a representative immunoassay method for the testing of luminogenic reagents. […] The particles were then exposed to the luminogenic reagent, which contained a substrate for ALP, and luminescence was measured.
R1 (10.4 μl of serum-based solution containing fluorescein-labeled antibody to TSH), R2 (10.4 μl of serum-based solution containing antibody to TSH conjugated with ALP) and S (7.2 μl of serum sample) were aspirated into the second segment. […] The fifth segment was R3, of the composition described above, with the key elements being the luminogenic substrate and the luminescence enhancer. […]

[4] = aqueous solutions, 25° C., four weeks

Compound: O=C([O-])C(CCOC1(c2cccc(OP(=O)([O-])[O-])c2)OOC12C1CC3CC(C1)CC2C3)C(=O)[O-].[Na+].[Na+].[Na+].[Na+] (centres unmarked) [Dioxetane 1]
% of Dioxetane Remaining ([1]; 0 wks): 100%
% of Dioxetane Remaining ([1]; 1 wk): 94.8%
% of Dioxetane Remaining ([1]; 2 wks): 91.1%
% of Dioxetane Remaining ([1]; 3 wks): 87.5%
% of Dioxetane Remaining ([1]; 4 wks): 84.1%
% of Dioxetane Remaining ([1]; 5 wks): 81.8%
% of Dioxetane Remaining ([1]; 6 wks): 80.7%
% of Dioxetane Remaining ([1]; 9 wks): 76.5%
Decomposition on storage (in words) ([1]; alkaline buffer, 25° C., two weeks): significant decomposition
Storage stability compared with other dioxetanes (in words) ([1]; aqueous buffer solutions, 25° C.): significantly less stable than a related compound, Lumigen PPD

Compound: [4-(3,3-biscarboxybutoxy)-4-(3-phosphoryloxyphenyl)]spiro[1,2-dioxetane-3,2′-tricyclo[3.3.1.1^3,7]-decane], tetrasodium salt [Dioxetane 5]
Decomposition on storage (in words) [1, 4]: essentially no decomposition

Compound: CCCCCCCC[P+](CCCCCCCC)(CCCCCCCC)Cc1ccc(C[P+](CCCC)(CCCC)CCCC)cc1.[Cl-].[Cl-] [Enhancer A, 1-trioctylphosphoniummethyl-4-tributylphosphoniummethylbenzene dichloride]
Factor of increase of luminescent signal ([2]; pH 9.6): 6.2
Factor of increase of luminescent signal ([2]; pH 10.0): 4.8

Storage stability compared with other dioxetanes (in words) [1]: worse than that of 1
Compound: [4-(3,3-biscarboxy)-3-chloropropoxy)-4-(3-phosphoryloxyphenyl)]spiro[1,2-dioxetane-3,2′-tricyclo [3.3.1.1^3,7]decane], tetrasodium salt [Dioxetane 4]

Compound: [4-(3,3-biscarboxy)-3-fluoropropoxy)-4-(3-phosphoryloxyphenyl)]spiro[1,2-dioxetane-3,2′-tricyclo [3.3.1.1^3,7]decane], tetrasodium salt [Dioxetane 3]
Decomposition on storage (in words) [1, 4]: essentially no decomposition
Assay performance (sensitivity, dynamic range, precision) in words (alkaline phosphatase): sensitivity, dynamic range and precision comparable to the results using dioxetane 1

Compound: O=S(=O)([O-])c1cc(O)c2ccc3c(S(=O)(=O)[O-])cc(S(=O)(=O)[O-])c4ccc1c2c34.[Na+].[Na+].[Na+] [Pyranine]
Factor by which signal in test N was lower when the fluorescent enhancer was omitted [3]: approximately 10
Enhancement Factor ([2]; 0.01 mM fluorescer): 3.7
Enhancement Factor ([2]; 0.02 mM fluorescer): 7.3
Enhancement Factor ([2]; 0.03 mM fluorescer): 9.8
Enhancement Factor ([2]; 0.04 mM fluorescer): 12.2
Enhancement Factor ([2]; 0.05 mM fluorescer): 13.7
Enhancement by fluorescer alone ([2]; fluorescer 3 mM, without Enhancer A): about ten-fold
